How the values were obtained:
[1] = target: Histone deacetylase 1 (Homo sapiens, UniProt Q13547); assay: Inhibition of recombinant HDAC1 (unknown origin) using of Fluor-de-Lys substrate incubated for 10 mins by fluorimetric assay
[2] = target: T1, Bromodomain-containing protein 4 (Homo sapiens, UniProt O60885); assay: Inhibition of human BRD4 expressed in Escherichia coli BL21(DE3)-R3-pRARE2 by bromodomain alphascreen peptide displacement assay
[3] = target: T2, Bromodomain-containing protein 9 (Homo sapiens) (UniProt Q9H8M2); assay: Binding affinity to human BRD9 expressed in Escherichia coli BL21(DE3)-R3-pRARE2 assessed as change in melting temperature at 25 uM by SYPRO orange based protein stability shift assay
T2 sequence (whole entry): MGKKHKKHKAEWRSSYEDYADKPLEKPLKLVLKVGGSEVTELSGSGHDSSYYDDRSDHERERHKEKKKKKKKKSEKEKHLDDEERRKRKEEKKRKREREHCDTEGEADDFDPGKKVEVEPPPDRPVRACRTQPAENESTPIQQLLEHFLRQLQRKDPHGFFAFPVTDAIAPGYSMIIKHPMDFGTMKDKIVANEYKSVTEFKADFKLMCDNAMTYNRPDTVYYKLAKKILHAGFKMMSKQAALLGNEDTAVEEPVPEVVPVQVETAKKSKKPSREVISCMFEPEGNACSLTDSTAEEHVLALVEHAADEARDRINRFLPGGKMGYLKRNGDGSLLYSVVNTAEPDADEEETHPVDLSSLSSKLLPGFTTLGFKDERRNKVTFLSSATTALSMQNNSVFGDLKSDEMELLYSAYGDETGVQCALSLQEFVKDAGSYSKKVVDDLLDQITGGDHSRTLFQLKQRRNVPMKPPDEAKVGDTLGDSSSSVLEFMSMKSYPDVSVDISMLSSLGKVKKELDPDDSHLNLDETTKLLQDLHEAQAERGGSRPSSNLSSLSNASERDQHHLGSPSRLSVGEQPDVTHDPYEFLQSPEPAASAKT

[4] = target: Chromatin remodeling regulator CECR2 (Homo sapiens) (UniProt Q9BXF3); assay: Binding affinity to human CECR2 expressed in Escherichia coli BL21(DE3)-R3-pRARE2 assessed as change in melting temperature at 25 uM by SYPRO orange based protein stability shift assay
[5] = target: CREB-binding protein (Homo sapiens) (UniProt Q92793); assay: Binding affinity to human CREBBP expressed in Escherichia coli BL21(DE3)-R3-pRARE2 assessed as change in melting temperature at 25 uM by SYPRO orange based protein stability shift assay
Sequence of CREB-binding protein (Homo sapiens) (Q92793 2-2442 limits assumed): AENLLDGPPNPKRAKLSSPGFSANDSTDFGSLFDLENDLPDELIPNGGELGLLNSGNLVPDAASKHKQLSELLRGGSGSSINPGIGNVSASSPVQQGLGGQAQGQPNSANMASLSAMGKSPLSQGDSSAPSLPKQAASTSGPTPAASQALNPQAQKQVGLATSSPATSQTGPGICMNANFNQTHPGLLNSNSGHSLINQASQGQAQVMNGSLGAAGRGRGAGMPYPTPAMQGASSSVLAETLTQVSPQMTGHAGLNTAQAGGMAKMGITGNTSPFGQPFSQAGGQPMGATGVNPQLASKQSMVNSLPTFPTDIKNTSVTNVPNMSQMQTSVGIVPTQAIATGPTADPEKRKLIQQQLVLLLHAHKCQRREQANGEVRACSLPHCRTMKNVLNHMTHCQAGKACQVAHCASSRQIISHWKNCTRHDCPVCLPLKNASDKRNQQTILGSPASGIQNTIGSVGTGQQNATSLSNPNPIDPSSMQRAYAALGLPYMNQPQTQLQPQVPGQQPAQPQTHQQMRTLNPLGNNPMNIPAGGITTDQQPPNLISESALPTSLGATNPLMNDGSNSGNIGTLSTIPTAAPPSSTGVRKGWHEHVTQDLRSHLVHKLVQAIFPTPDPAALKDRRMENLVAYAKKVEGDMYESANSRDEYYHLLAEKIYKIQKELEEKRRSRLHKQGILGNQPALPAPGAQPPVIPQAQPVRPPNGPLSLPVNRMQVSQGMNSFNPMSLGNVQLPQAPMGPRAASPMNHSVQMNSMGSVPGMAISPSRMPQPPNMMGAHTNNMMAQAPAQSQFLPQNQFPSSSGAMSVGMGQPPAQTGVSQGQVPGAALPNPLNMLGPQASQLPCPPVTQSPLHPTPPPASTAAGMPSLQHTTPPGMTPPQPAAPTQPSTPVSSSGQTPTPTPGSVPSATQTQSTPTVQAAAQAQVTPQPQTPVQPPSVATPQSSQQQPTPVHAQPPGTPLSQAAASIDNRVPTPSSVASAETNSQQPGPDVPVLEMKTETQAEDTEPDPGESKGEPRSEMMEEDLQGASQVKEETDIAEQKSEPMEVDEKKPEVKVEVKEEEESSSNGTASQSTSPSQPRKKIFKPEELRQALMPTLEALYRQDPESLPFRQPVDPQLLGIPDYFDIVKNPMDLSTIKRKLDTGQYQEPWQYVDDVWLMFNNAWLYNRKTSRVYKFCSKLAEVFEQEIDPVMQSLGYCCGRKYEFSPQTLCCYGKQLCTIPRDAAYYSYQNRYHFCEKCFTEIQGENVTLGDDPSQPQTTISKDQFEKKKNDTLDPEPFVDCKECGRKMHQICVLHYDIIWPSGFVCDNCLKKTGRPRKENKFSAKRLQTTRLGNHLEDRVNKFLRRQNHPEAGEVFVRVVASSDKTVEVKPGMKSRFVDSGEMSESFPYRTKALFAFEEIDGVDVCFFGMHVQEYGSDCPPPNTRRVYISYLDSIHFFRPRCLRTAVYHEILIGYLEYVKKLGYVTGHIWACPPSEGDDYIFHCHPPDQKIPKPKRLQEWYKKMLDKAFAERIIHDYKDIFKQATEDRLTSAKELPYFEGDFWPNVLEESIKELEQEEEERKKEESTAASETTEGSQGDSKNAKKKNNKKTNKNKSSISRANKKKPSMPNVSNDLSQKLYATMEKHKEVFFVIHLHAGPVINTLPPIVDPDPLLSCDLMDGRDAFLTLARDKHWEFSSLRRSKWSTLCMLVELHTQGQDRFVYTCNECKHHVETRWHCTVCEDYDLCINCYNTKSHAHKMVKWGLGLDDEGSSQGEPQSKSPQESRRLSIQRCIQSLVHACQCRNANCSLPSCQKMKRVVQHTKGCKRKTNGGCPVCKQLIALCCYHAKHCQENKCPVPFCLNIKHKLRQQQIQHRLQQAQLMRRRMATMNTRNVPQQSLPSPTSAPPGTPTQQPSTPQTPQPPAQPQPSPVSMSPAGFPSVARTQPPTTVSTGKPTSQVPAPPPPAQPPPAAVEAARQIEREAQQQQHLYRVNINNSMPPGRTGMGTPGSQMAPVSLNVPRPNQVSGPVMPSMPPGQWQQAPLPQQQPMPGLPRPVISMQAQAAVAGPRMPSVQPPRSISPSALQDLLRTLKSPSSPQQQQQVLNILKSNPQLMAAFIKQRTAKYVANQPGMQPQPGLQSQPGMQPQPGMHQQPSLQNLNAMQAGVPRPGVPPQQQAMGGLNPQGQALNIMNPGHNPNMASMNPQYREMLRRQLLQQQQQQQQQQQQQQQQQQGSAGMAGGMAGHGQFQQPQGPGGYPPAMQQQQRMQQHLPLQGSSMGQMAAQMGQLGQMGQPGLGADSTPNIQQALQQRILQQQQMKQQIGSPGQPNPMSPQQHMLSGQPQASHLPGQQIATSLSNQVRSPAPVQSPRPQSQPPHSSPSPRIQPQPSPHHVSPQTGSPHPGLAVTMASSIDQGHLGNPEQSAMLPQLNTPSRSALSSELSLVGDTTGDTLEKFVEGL

[6] = target: Histone acetyltransferase KAT2B (Homo sapiens) (UniProt Q92831); assay: Binding affinity to human PCAF expressed in Escherichia coli BL21(DE3)-R3-pRARE2 assessed as change in melting temperature at 25 uM by SYPRO orange based protein stability shift assay
Sequence of Histone acetyltransferase KAT2B (Homo sapiens) (Q92831 whole entry, looked up): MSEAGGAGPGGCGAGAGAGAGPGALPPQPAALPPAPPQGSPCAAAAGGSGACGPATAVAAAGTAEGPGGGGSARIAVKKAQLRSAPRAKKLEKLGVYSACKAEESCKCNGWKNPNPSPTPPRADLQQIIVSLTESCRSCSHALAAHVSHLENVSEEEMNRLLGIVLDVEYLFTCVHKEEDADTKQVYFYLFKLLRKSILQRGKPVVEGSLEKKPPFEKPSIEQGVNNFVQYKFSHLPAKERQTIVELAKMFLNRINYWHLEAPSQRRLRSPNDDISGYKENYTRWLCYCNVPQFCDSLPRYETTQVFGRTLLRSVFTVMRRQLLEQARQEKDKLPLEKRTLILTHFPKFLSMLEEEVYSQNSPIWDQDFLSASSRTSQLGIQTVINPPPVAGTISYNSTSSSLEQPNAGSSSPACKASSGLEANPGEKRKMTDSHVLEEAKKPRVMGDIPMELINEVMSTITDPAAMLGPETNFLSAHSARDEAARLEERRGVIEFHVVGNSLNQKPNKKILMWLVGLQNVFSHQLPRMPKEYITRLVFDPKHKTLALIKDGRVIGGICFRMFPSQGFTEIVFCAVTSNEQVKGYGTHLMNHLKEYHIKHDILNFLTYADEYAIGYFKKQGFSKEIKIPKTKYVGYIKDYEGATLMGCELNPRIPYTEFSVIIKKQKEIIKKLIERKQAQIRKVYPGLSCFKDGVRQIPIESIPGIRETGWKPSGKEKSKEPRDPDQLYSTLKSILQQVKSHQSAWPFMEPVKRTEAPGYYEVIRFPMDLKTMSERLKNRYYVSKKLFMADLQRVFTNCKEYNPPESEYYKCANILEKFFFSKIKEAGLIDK

[7] = target: Transcription initiation factor TFIID subunit 1 (Homo sapiens) (UniProt P21675); assay: Binding affinity to human TAF1 expressed in Escherichia coli BL21(DE3)-R3-pRARE2 assessed as change in melting temperature at 25 uM by SYPRO orange based protein stability shift assay
Sequence of Transcription initiation factor TFIID subunit 1 (Homo sapiens) (P21675 whole entry): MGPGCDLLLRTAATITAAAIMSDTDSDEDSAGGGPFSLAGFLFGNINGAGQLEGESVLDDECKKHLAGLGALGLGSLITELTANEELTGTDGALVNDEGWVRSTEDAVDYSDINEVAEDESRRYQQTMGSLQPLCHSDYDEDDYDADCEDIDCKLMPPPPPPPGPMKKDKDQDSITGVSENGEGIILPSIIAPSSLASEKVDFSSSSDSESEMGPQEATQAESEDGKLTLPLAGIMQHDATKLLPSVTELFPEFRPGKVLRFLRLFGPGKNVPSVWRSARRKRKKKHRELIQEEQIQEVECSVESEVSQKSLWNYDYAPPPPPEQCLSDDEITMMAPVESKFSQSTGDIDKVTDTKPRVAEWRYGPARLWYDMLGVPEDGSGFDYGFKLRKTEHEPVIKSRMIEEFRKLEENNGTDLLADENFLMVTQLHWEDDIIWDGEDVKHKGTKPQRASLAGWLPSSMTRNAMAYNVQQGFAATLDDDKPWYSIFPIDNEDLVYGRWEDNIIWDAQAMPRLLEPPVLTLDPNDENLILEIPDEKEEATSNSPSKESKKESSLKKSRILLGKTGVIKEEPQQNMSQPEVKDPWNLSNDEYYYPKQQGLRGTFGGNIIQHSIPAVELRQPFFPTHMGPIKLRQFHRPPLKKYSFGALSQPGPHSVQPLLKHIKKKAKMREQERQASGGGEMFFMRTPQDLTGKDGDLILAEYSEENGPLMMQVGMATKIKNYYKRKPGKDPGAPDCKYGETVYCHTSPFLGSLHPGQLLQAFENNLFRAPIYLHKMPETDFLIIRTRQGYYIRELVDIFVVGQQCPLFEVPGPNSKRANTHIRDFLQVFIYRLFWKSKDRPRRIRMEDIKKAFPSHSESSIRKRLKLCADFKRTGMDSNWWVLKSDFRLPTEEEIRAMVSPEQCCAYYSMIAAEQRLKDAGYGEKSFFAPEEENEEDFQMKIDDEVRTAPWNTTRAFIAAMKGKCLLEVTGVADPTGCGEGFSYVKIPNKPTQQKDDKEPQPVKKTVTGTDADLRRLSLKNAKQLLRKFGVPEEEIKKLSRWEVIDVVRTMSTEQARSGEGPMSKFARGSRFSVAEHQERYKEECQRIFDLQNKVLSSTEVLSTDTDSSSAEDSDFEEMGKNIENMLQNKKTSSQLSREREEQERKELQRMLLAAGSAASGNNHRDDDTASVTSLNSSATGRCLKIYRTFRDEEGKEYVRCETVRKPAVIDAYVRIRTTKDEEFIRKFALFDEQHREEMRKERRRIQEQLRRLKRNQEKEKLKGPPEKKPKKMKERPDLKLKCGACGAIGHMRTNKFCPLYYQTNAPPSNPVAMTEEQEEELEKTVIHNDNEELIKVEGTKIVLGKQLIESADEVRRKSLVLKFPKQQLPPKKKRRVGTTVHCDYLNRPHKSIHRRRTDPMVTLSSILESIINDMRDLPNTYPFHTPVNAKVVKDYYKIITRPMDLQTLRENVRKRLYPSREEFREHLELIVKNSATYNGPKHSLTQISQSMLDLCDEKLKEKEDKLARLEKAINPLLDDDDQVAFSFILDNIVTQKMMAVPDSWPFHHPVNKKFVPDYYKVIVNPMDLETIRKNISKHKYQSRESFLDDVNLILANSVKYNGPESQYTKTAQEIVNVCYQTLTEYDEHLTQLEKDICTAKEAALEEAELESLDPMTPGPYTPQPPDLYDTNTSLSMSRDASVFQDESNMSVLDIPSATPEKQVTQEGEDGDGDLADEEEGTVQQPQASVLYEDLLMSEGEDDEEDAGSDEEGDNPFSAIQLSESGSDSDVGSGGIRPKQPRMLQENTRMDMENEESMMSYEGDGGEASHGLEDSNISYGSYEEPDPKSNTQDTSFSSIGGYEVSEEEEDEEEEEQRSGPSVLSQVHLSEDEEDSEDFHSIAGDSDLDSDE

[8] = target: T1, Bromodomain-containing protein 4
Description: Binding affinity to human BRD4 expressed in Escherichia coli BL21(DE3)-R3-pRARE2 assessed as change in melting temperature at 25 uM by SYPRO orange based protein stability shift assay

[9] = test system: K562; assay: Antiproliferative activity against human K562 cells assessed as reduction in cell viability incubated for 72 hrs by Alamar blue assay; format: functional, cell-based; settings: K562, 72 h
[10] = test system: MV4-11; assay: Antiproliferative activity against human MV4-11 cells assessed as reduction in cell viability incubated for 72 hrs by Alamar blue assay; format: functional, cell-based; settings: MV4-11, 72 h

Compound | IC50 [1] | IC50 [2] | ΔTm [3] | ΔTm [4] | ΔTm [5] | ΔTm [6] | ΔTm [7] | ΔTm [8] | IC50 [9] | IC50 [10]
Cc1noc(C)c1-c1cccc(NC(=O)CCCCCC(=O)NO)c1 | 0.36 µM | 3.73 µM | -0.13 °C | 0.64 °C | 0.73 °C | 0.05 °C | 1.08 °C | 3.58 °C | – | –
Cc1noc(C)c1-c1cc(NC(=O)CCCCCCC(=O)NO)cc(C(=O)c2ccccc2)c1 | 0.15 µM | 0.67 µM | 2.97 °C | 1.96 °C | 3.24 °C | 1.35 °C | 2.22 °C | 7.49 °C | 1.86 µM | 0.91 µM
Cc1noc(C)c1-c1cc(OCCCCCC(=O)NO)cc(C(=O)c2ccccc2)c1 | 1.49 µM | 1.38 µM | 1.56 °C | 1.18 °C | 1.69 °C | 0.28 °C | 1.69 °C | 7.54 °C | – | –
Cc1noc(C)c1-c1cc(NC(=O)CCCCC(=O)NO)cc(C(=O)c2ccccc2)c1 | 0.76 µM | 0.78 µM | 2.79 °C | 1.65 °C | 2.05 °C | 0.31 °C | 1.95 °C | 6.21 °C | – | –
Cc1noc(C)c1-c1cc(NC(=O)CCCCCC(=O)NO)cc(C(=O)c2ccccc2)c1 | 0.27 µM | 0.85 µM | 2.26 °C | 1.52 °C | 2.32 °C | 0.92 °C | 1.76 °C | 6.37 °C | 2.33 µM | 1.04 µM
Cc1noc(C)c1-c1cc(OCCCCCCC(=O)NO)cc(C(O)c2ccccc2)c1 (configuration not stated) | 0.97 µM | 0.77 µM | 1.55 °C | 1.32 °C | 4.03 °C | 0.35 °C | 1.72 °C | 7.53 °C | – | –
Cc1noc(C)c1-c1cc(OCCCCCCC(=O)NO)cc(C(=O)c2ccccc2)c1 | 1.43 µM | 1.05 µM | 1.72 °C | – | 2.13 °C | 1.04 °C | 2.22 °C | 7.41 °C | – | –
Cc1noc(C)c1-c1cc(OCCCCC(=O)NO)cc(C(=O)c2ccccc2)c1 | 5.45 µM | 1.49 µM | -0.75 °C | – | -0.01 °C | -7.9 °C | 1.14 °C | 5.89 °C | – | –
Cc1sc2c(c1C)C(c1ccc(Cl)cc1)=N[C@@H](CC(=O)OC(C)(C)C)c1nnc(C)n1-2 (racemic) | – | – | – | – | – | – | – | – | 0.64 µM | 0.24 µM
Cc1noc(C)c1-c1cc(OCCCCCCCC(=O)NO)cc(C(=O)c2ccccc2)c1 | 1.74 µM | 2.99 µM | 1.22 °C | 2.06 °C | 0.65 °C | -0.31 °C | 1.77 °C | 4.91 °C | – | –
O=C(CCCCCCC(=O)Nc1ccccc1)NO [VORINOSTAT] | – | – | – | – | – | – | – | – | 0.17 µM | –
